Experimental findings from patent publication US11571483B2, “E2F reporter melanoma cells” (THOMAS JEFFERSON UNIVERSITY, priority 2015, dated 2023) are described below.

In assay [1] the test system is 1205Lu xenografts. Put plainly: 1205Lu reporter xenograft model, tumor volume / response. Type of assay: in vivo, immunodeficient nude mice. From the text:
(§1) FIG. 7 A depicts the E2F reporter system for measuring the efficacy of CDK4/6 and MEK inhibitors in vivo. Firefly luciferase is expressed under the control of E2F response elements. […] CR=complete response. FIG. 7D depicts analysis of E2F reporter activity normalized to tdTomato fluorescent protein activity in 1205Lu xenografts. […] CR=complete response. FIG. 7G depicts representative images of 1205Lu xenografts taken from mice fed vehicle, MEK inhibitor, CDK4/6 inhibitor and combo-laced chow analyzed for Ki67. FIG. 7H depicts quantitation of Ki67 positive cells (% of total cells) taken from mice fed vehicle (n=2), MEK inhibitor (n=4), CDK4/6 inhibitor (n=4) and combo laced chow (n=4).
(§2) Indeed, in a performed xenograft mouse model, 1205Lu reporter cells were intradermally injected into immunodeficient nude mice.
(§3) Mice were retreated with combination regimen at day 67. FIG. 9B depicts modulation of E2F activity in combination treated mice following drug removal and retreatment. […] FIG. 9C depicts RPPA analysis on resistant tumors.

Assay [2] has as its system E2F. The assay can be described thus: E2F reporter activity in 1205Lu xenografts (luciferase normalized to tdTomato). Type of assay: in vivo, immunodeficient nude mice. The note with it: drug-laced chow.
Text: as §1, §2, §3

Assay [3] concerns E2F. Put plainly: E2F reporter assay in vitro (firefly luciferase normalized to actin). The note with it: 1205Lu reporter cells; palbociclib (0.5 μM), 48 hours. The class given is cell-based, human. From the text: CR=complete response. […] CR=complete response.
Tumor cells were also transduced with tdTomato fluorescent protein to selectively monitor tumor growth. […] In FIG. 8 1205Lu reporter cells were transfected with silencing RNA to control sequence, CDK4, CDK6 or both CDK4 and CDK6. […] Firefly luciferase activity was normalized to actin levels in each sample.
(In general: Reporter assays use an easily measured gene product as a stand-in for the process of interest.)

For the compound `O=C(NOC[C@H](O)CO)c1ccc(F)c(F)c1Nc1ccc(I)cc1F` [PD0325901], the complete regressions result in assay [1] (MEK inhibitor chow (mouse #6)) is given as “one complete regression”. In addition, in assay [1] (by treatment day 44), the “tumor regrowth on treatment” value is reported as “dramatic tumor regrowth”. The “tumor volume, initial response” value in assay [1] (drug-laced chow) is recorded as “initially maintained tumor volumes at a static level”. The “E2F reporter activity in tumors on treatment” value in assay [2] is “strong E2F reactivation”.
With `CC(=O)c1c(C)c2cnc(Nc3ccc(N4CCNCC4)cn3)nc2n(C2CCCC2)c1=O` [palbociclib], the “reduction in firefly luciferase activity normalized to actin levels” value in assay [3] came out at 60%.
